Earlier results, collected in patent US8569271B2 (Laboratorios del Dr. Esteve, S.A., priority 2009, dated 2013).

## Cc1ccc(-c2cc(C(F)(F)F)nn2-c2ccc(S(N)(=O)=O)cc2)cc1 [celecoxib, 4-[5-(4-methylphenyl)-3-(trifluoromethyl)-pyrazol-1-yl]-benzenesulfonamide]
  solubility in water: only slightly soluble in water
